This is an account of results in ChEMBL document CHEMBL1136126, “Development of 3D-QSAR models in cyclic ureidobenzenesulfonamides: human beta3-adrenergic receptor agonist” (Bioorg Med Chem Lett, 2003).

Assay [1] has as its target T1, Beta-3 adrenergic receptor (Homo sapiens, UniProt P13945). The experiment in a line: (§1) In vitro effective concentration against beta-3 adrenergic receptor.
In assay [2] the target is T1, Beta-3 adrenergic receptor. Described as §1. The source holds these as a separate data set.

pEC50: −log10 of the molar value.

T1 sequence (P13945 whole entry): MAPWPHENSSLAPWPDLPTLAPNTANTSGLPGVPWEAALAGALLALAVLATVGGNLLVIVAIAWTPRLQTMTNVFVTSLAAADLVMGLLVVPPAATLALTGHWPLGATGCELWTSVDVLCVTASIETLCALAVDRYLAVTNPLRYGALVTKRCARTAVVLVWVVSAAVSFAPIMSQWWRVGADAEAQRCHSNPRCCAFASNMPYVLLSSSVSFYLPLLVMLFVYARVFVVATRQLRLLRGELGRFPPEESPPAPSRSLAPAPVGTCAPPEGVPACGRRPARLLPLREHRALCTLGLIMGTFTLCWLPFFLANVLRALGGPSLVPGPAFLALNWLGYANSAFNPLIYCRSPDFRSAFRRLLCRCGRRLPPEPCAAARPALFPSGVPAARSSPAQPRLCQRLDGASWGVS

Usually pEC50 stands for −log10 of the EC50, conventionally taken in molar units. A low value points to a large EC50. Turning to `CCCCCCCCN1CNN(c2ccc(S(=O)(=O)Nc3ccc(CCNC[C@H](O)c4cccnc4)cc3)cc2)C1=O`, the pEC50 in assay [1] and in assay [2] was 8.27 throughout.

The compound `CCCCCCN1CC(=O)N(c2ccc(S(=O)(=O)Nc3ccc(CCNC[C@H](O)c4cccnc4)cc3)cc2)C1=O` had a pEC50 in assay [1] of 6.56.

With `CCCCCCCCN1NCN(c2ccc(S(=O)(=O)Nc3ccc(CCNC[C@H](O)c4cccnc4)cc3)cc2)C1=O`, the pEC50 in assay [1] and in assay [2] was 7.82 each time.
